Publication PMC6272846, “Synthesis and p38 Inhibitory Activity of Some Novel Substituted N,N′-Diarylurea Derivatives” (Molecules, 2016)

Columns and labels:
MAPKAPK2 = assay: Inhibition of MAPKAPK2 in GFP-MAPKAPk2_BHK cell model (nuclear translocation); type: cell-based; conditions: GFP-MAPKAPk2_BHK cells
Procedure: In order to study p38α inhibition in a cell system, we investigated the ability of all compounds to inhibit the phosphorylation of mitogen-activated protein-kinase-activated protein kinase 2 (MAPKAPK2). Each compound was prepared at […] concentrations (1, 3, 10 and 30 nM, 0.1 and 0.3 μM), and the percentages of inhibition were calculated from the numbers of cells after treatment with the different compounds.
GFP-MAPKAPk2_BHK cells were cultured in 96-well plates (2.0 × 10^4/100 μL/well) containing 10% heat-inactivated foetal bovine serum (FBS) and 1 mg/mL G418 at 37 °C in humidified air containing 5% CO2 for 18–24 h. The cells were washed with nutrient solution (100 μL/well) and changed to the compound liquid (100 μL/well). Experiments were set up with the control, and the compound was repeated at each concentration in three wells. The cells were cultured in 96-well plates at 37 °C in humidified air containing 5% CO2 for 90 min. The cells were washed with the dye solution (20 μL/well), and the dyed cells were held for 1 hour at room temperature in the dye liquid. Analysis of nuclear translocation and calculation of the ability of the compounds to inhibit nuclear translocation was performed using the IN Cell Analyzer 1000 Nuclear Trafficking Analysis Module System (GE, Madison, WI, USA). The cultured cells were treated with the obtained compounds in […] concentration grads (1, 3, 10 and 30 nM, 0.1 and 0.3 μM). The inhibitory percentage can be calculated using the amounts of cells after the disposition of the different compounds.

MAPK14/p38α = MAPK14/p38α (Homo sapiens, UniProt Q16539); assay: p38α MAP kinase activity, phosphorylation of ATF-2 (TR-FRET); type: biochemical; conditions: enzyme
MAPK14/p38α, sequence (Q16539 whole entry): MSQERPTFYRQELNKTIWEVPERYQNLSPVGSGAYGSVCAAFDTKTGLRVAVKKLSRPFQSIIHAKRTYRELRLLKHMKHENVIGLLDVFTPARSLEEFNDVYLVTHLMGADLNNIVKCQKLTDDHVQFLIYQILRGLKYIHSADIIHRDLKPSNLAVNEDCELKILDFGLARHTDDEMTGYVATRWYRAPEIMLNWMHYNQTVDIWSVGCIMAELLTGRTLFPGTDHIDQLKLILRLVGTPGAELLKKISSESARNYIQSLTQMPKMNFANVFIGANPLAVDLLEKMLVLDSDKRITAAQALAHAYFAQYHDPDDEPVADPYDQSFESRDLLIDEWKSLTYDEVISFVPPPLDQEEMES
Procedure: Kinase reaction buffer was composed of 50 mM HEPES (pH 7.5), 0.01% BRIJ-35, 10 mM MgCl2 and 1 mM EGTA. Prepared MAPK14/p38α in 1× kinase buffer with concentration at 500 ng/mL. A 2-fold serial dilution was performed using 1× kinase buffer from 500 ng/mL using 16 dose points. […] The reaction was started by adding 5 μL of the GFP-ATF2(19–96) substrate and ATP solution into each well of the assay plate. The final starting concentration of MAPK14/p38α was 250ng/ml, and the final GFP-ATF2 and ATP concentrations were 0.4 μM and 90 μM, respectively. The assay plate was sealed and incubated for 1 hour at room temperature (RT). Antibody solution (1 mL) was prepared from 20 mM EDTA and 4 nM Tb-antipATF2 (pThr71) antibody in TR-FRET dilution buffer. Antibody solution (10 μL) was added into each well of the assay plate and mixed gently. The final EDTA concentration was 10 mM, and the final Tb-antipATF2 (pThr71) concentration was 2 nM. The assay plate was sealed and incubated for 30 minutes at RT.
Inhibitor in 0.5% DMSO (2 μL/well) at 5-fold the final assay concentration was added into a 384-well assay plate. […] MAPK14/p38α (4 μL/well) was added to each well of the 384-well assay plate and incubated for 15 min at RT. To start the reaction, substrate GFP-ATF2 (19–96) and ATP (4 μL/well) were added into kinase reaction buffer. […] The resulting TR-FRET emission ratio was plotted against the concentration of inhibitor, and the data fitted to a sigmoidal dose-response curve with a variable slope. The IC50 concentration was calculated from the curve.

[1] = test system: TNF-α release from THP-1 cells; assay: Inhibition of TNF-α release from THP-1 cells after LPS stimulation; type: cell-based; conditions: Homo sapiens; LPS-stimulated THP-1 cells
Procedure: LPS stock was prepared at 1 mg/mL by adding 1 mL sterile endotoxin-free water to 1 mg LPS powder. The LPS stock was aliquoted and stored at −20 °C. […] An amount of 100 K THP-1 cells were seeded into a 96-well cell culture plate in 100 μL of test medium. […] A total of 10 μL compound was added to the plate with cells, and the cells were incubated for 1 hour at 37 °C. An amount of 10 μL/well LPS was added to stimulate the cells. The final LPS concentration was 300 ng/mL, and the DMSO concentration was 0.3%. […]. The plate was incubated for 5 hours at 37 °C. […] Three replicates were used for each dose. At the 5th hour, the TNF-α in the supernatants and standard curve samples was determined using the HTRF kit. […] Amounts of 5 μL Anti-TNF-α-Cryptate (Invitrogen, Carlsbad, CA, USA) and 5 μL Anti-TNFα-XL665 (Invitrogen) were added, and the plate was incubated at RT for 15 h. The plate was read on an Envision instrument (PerkinElmer) and the IC50 was calculated.

Row | Structure (SMILES) | IC50 (MAPKAPK2; bound given in µM) | IC50 (MAPK14/p38α; bound given in µM) | IC50 (MAPKAPK2) | IC50 (MAPK14/p38α; GFP-ATF2 substrate, 90 μM ATP) | IC50 [1]
1 | CC(C)(C)c1cc(NC(=O)Nc2ccccc2Oc2ccc3[nH]ncc3c2)n(-c2ccccc2)n1 [29b, 1-(2-((1H-Indazol-5-yl)oxy)phenyl)-3-(3-(tert-butyl)-1-phenyl-1H-pyrazol-5-yl)urea] | > 10 µM | > 10 µM | – | – | –
2 | CC(C)(C)c1cc(NC(=O)NCc2cc(F)ccc2Oc2ccc3[nH]ncc3c2)n(-c2ccc([N+](=O)[O-])cc2)n1 [25i, 1-(2-((1H-Indazol-5-yl)oxy)-5-fluorobenzyl)-3-(3-(tert-butyl)-1-(4-nitrophenyl)-1H-pyrazol-5-yl)urea] | – | – | 0.00383 ± 0.00112 µM | 0.00143 ± 8e-05 µM | –
3 | COc1ccc(-n2nc(C(C)(C)C)cc2NC(=O)NCc2ccccc2Oc2ccc3[nH]ncc3c2)cc1 [25d, 1-(2-((1H-Indazol-5-yl)oxy)benzyl)-3-(3-(tert-butyl)-1-(4-methoxyphenyl)-1H-pyrazol-5-yl)urea] | – | – | 0.00545 ± 0.00043 µM | 0.00122 ± 0.00032 µM | 1.43 ± 0.07 nM
4 | CC(C)(C)c1cc(NC(=O)NCc2ccccc2Oc2ccc3[nH]ncc3c2)n(-c2ccc(F)cc2)n1 [25g, 1-(2-((1H-Indazol-5-yl)oxy)benzyl)-3-(3-(tert-butyl)-1-(4-fluorophenyl)-1H-pyrazol-5-yl)urea] | – | – | 0.00316 ± 0.00131 µM | 0.00066 ± 9e-05 µM | 2 ± 0.01 nM
5 | Cc1ccc(-n2nc(C(C)(C)C)cc2NC(=O)NCc2cc(F)ccc2Oc2ccc3[nH]ncc3c2)cc1 [25j, 1-(2-((1H-Indazol-5-yl)oxy)-5-fluorobenzyl)-3-(3-(tert-butyl)-1-(p-tolyl)-1H-pyrazol-5-yl)urea] | – | – | 0.00361 ± 0.00243 µM | 0.00153 ± 7e-05 µM | –
6 | CC(C)(C)c1cc(NC(=O)NCc2cc(F)ccc2Oc2ccc3c(c2)CCCC3O)n(-c2ccc([N+](=O)[O-])cc2)n1 (stereo not shown) [27d, 1-(3-(tert-Butyl)-1-(4-nitrophenyl)-1H-pyrazol-5-yl)-3-(5-fluoro-2-((5-hydroxy-5,6,7,8-tetrahydro-naphthalen-2-yl)oxy)benzyl)urea] | – | – | – | 0.00576 ± 0.00024 µM | 130 ± 3.33 nM
7 | Cc1ccc(-n2nc(C(C)(C)C)cc2NC(=O)NCc2ccccc2Oc2ccc3c(c2)CCCC3O)cc1 (stereo not shown) [27a, 1-(3-(tert-Butyl)-1-(p-tolyl)-1H-pyrazol-5-yl)-3-(2-((5-hydroxy-5,6,7,8-tetrahydronaphthalen-2-yl)oxy)-benzyl)urea] | – | – | 0.13341 ± 7e-05 µM | 0.00359 ± 0.00021 µM | 15.3 ± 2.56 nM
8 | CC(C)(C)c1cc(NC(=O)NCc2ccccc2Oc2ccc3[nH]ncc3c2)n(-c2ccc(Cl)cc2)n1 [25e, 1-(2-((1H-Indazol-5-yl)oxy)benzyl)-3-(3-(tert-butyl)-1-(4-chlorophenyl)-1H-pyrazol-5-yl)urea] | – | – | 0.00992 ± 0.00065 µM | – | 3.48 ± 0.46 nM
9 | Cc1ccc(-n2nc(C(C)(C)C)cc2NC(=O)Nc2ccccc2Oc2ccc3[nH]ncc3c2)cc1 [29a, 1-(2-((1H-Indazol-5-yl)oxy)phenyl)-3-(3-(tert-butyl)-1-(p-tolyl)-1H-pyrazol-5-yl)urea] | > 10 µM | > 10 µM | – | – | –
10 | CC(C)(C)c1cc(NC(=O)NCc2ccccc2Oc2ccc3[nH]ncc3c2)n(-c2ccc(Br)cc2)n1 [25f, 1-(2-((1H-Indazol-5-yl)oxy)benzyl)-3-(1-(4-bromophenyl)-3-(tert-butyl)-1H-pyrazol-5-yl)urea] | – | – | 0.0074 ± 0.00087 µM | 0.00073 ± 1e-05 µM | 1.82 ± 0.15 nM
11 | CC(C)(C)c1cc(NC(=O)Nc2ccccc2OCCN2CCOCC2)n(-c2ccccc2)n1 [28b, 1-(3-(tert-Butyl)-1-phenyl-1H-pyrazol-5-yl)-3-(2-(2-morpholinoethoxy)phenyl)urea] | > 10 µM | > 10 µM | – | – | –
12 | Cc1ccc(-n2nc(C(C)(C)C)cc2NC(=O)Nc2ccccc2OCCN2CCOCC2)cc1 [28a, 1-(3-(tert-Butyl)-1-(p-tolyl)-1H-pyrazol-5-yl)-3-(2-(2-morpholinoethoxy)phenyl)urea] | > 10 µM | > 10 µM | – | – | –
13 | Cc1ccc(-n2nc(C(C)(C)C)cc2NC(=O)NCc2ccccc2OCCN2CCOCC2)cc1 [30b, 1-(3-(tert-Butyl)-1-(p-tolyl)-1H-pyrazol-5-yl)-3-(2-(2-morpholinoethoxy)benzyl)urea] | > 3 µM | – | – | – | –
14 | COc1ccc(-n2nc(C(C)(C)C)cc2NC(=O)Nc2ccc(Oc3ccc4[nH]ncc4c3)c3c2OCC=C3)cc1 [26d, 1-(5-((1H-Indazol-5-yl)oxy)-2H-chromen-8-yl)-3-(3-(tert-butyl)-1-(4-methoxyphenyl)-1H-pyrazol-5-yl)urea] | – | – | 0.0698 ± 0.00208 µM | – | –
15 | COc1ccc(-n2nc(C(C)(C)C)cc2NC(=O)Nc2ccccc2OCCN2CCOCC2)cc1 [28d, 1-(3-(tert-Butyl)-1-(4-methoxyphenyl)-1H-pyrazol-5-yl)-3-(2-(2-morpholinoethoxy)phenyl)urea] | > 10 µM | – | – | – | –
16 | CC(C)(C)c1cc(NC(=O)Nc2ccc(Oc3ccc4[nH]ncc4c3)c3c2OCC=C3)n(-c2ccc([N+](=O)[O-])cc2)n1 [26f, 1-(5-((1H-Indazol-5-yl)oxy)-2H-chromen-8-yl)-3-(3-(tert-butyl)-1-(4-nitrophenyl)-1H-pyrazol-5-yl)urea] | – | – | 0.0412 ± 0.00146 µM | – | –
17 | CC(C)(C)c1cc(NC(=O)NCc2ccccc2OCCN2CCOCC2)n(-c2ccccc2)n1 [30d, 1-(3-(tert-Butyl)-1-phenyl-1H-pyrazol-5-yl)-3-(2-(2-morpholinoethoxy)benzyl)urea] | > 3 µM | – | – | – | –
18 | CC(C)(C)c1cc(NC(=O)Nc2ccccc2Oc2ccc3[nH]ncc3c2)n(-c2ccc([N+](=O)[O-])cc2)n1 [29h, 1-(2-((1H-Indazol-5-yl)oxy)phenyl)-3-(3-(tert-butyl)-1-(4-nitrophenyl)-1H-pyrazol-5-yl)urea] | > 10 µM | – | – | – | –
19 | CC(C)(C)c1cc(NC(=O)Nc2ccc(Oc3ccc4[nH]ncc4c3)c3c2OCC=C3)n(-c2ccccc2)n1 [26b, 1-(5-((1H-Indazol-5-yl)oxy)-2H-chromen-8-yl)-3-(3-(tert-butyl)-1-phenyl-1H-pyrazol-5-yl)urea] | – | – | 0.0223 ± 0.00188 µM | 0.00514 ± 0.00033 µM | –
20 | Cc1ccc(-n2nc(C(C)(C)C)cc2NC(=O)NCc2cc(F)ccc2Oc2ccc3c(c2)CCCC3O)cc1 (stereo not shown) [27e, 1-(3-(tert-Butyl)-1-(p-tolyl)-1H-pyrazol-5-yl)-3-(5-fluoro-2-((5-hydroxy-5,6,7,8-tetrahydronaphthalen-2-yl)-oxy)benzyl)urea] | – | – | – | 0.005 ± 0.00053 µM | 182 ± 4.35 nM
21 | CC(C)(C)c1cc(NC(=O)NCc2ccccc2Oc2ccc3[nH]ncc3c2)n(-c2ccc(S(N)(=O)=O)cc2)n1 [25k, 4-(5-(3-(2-((1H-Indazol-5-yl)oxy)benzyl)ureido)-3-(tert-butyl)-1H-pyrazol-1-yl)benzenesulfonamide] | – | – | 0.039 ± 0.00576 µM | – | 8.69 ± 0.01 nM
22 | CC(C)(C)c1cc(NC(=O)Nc2ccc(Oc3ccc4[nH]ncc4c3)c3c2OCC=C3)n(-c2ccc(F)cc2)n1 [26e, 1-(5-((1H-Indazol-5-yl)oxy)-2H-chromen-8-yl)-3-(3-(tert-butyl)-1-(4-fluorophenyl)-1H-pyrazol-5-yl)urea] | – | – | 0.038 ± 0.00124 µM | 0.00596 ± 1e-05 µM | –
23 | CC(C)(C)c1cc(NC(=O)NCc2ccccc2OCCN2CCOCC2)n(-c2ccc(Cl)cc2)n1 [30a, 1-(3-(tert-Butyl)-1-(4-chlorophenyl)-1H-pyrazol-5-yl)-3-(2-(2-morpholinoethoxy)benzyl)urea] | > 3 µM | – | – | – | –
